Test results taken from patent publication US8063026B2, “Method of palliating lower urinary tract infections by treatment with mannan oligosaccharides” (priority 2006, dated 2011).

System: UTI symptoms
Experiment: Treatment of UTI symptoms in a patient (case reports)
Assay type: in vivo, human
Details: recurrent UTI episodes about 48 hours after sex, 1 tablet twice daily for five days
Method: A patient had been experiencing urinary tract infections since 1999. Episodes were very painful and invariably occurred about 48 hours after having sex. […] This pattern persisted for 6 years.
During an episode of UTI symptoms (urge to urinate; severe burning with urination; blood in urine), 100 mg MOS was administered to a patient (weighing approximately 50 kg) as a tablet (BioMOS® tablets, Alltech)-1 tablet before and after sex, plus three tablets per day.
Beginning during a symptom-free period, 100 mg MOS was administered to a patient (weighing approximately 50 kg) as a tablet (BioMOS® tablets, Alltech), once per day plus one pill with sex.
During a symptom-free period, 500 mg of MOS was administered as a capsule (capsules prepared from bulk CitriStim™, Archer Daniels Midland Alliance Nutrition, Inc., Quincy, Ill.; 1 or 2 capsules daily). […] Two capsules (CitriStim) were administered (three hours apart), followed 2 hours later by 100 mg MOS in tablet form (BioMOS® tablets, Alltech). […] Two MOS tablets were administered that morning (4 hours apart). In the late afternoon, a CitriStim capsule was administered, and one capsule was administered twice the following day.

Compound	Relief of UTI symptoms
O=C(O)c1cn(C2CC2)c2cc(N3CCNCC3)c(F)cc2c1=O [Cipro®, ciprofloxacin]	quickly relieve symptoms
trimethoprim-sulfamethoxazole [Bactrin DS®]	quickly relieve symptoms
